Source: patent US5212320A, “Indole derivatives and their use for testosterone 5-alpha-reductase-mediated diseases” (Fujisawa Pharmaceutical Co., Ltd., priority 1990, dated 1993)
Structures can show the parent of a compound that is named as a salt.

Target: testosterone 5α-reductase
Experiment: Inhibitory activity on testosterone 5α-reductase in rats (prostatic testosterone 5α-reductase assay)
Format: biochemical, rat (Spraque-Dawley male
Details: rat ventral prostate suspension; 2.2×10^-9 M 1,2,6,7-^3H-testosterone/testosterone; 50 μM NADPH; pH 6.5; 37° C., 30 minutes
Description: [2] INHIBITORY ACTIVITY ON TESTOSTERONE 5α-REDUCTASE IN RATS
1,2,6,7-^3 H-Testosterone (85-105 Ci/mmol): 1,2,6,7-^3 H-Testosterone (85-105 Ci/mmol) is a mixture of 1,2,6,7-^3 H-testosterone and testosterone which includes 85-105 Ci of 1,2,6,7-^3H-testosterone per mmol of testosterone and is purchased from New England Nuclear, Boston, Mass., U.S.A.
Aquazol-2 (Aquazol-2 Universal LSC Cocktail): trademark, purchased from New England Nuclear, Boston, Mass., U.S.A.
Mature Spraque-Dawley male rats (7-8 weeks old) were sacrificed by diethyl ether. The ventral prostates were dissected to be free of their capsules and their combined volume was measured by displacement in several milliliters of ice-cold medium A (0.32M sucrose, 0.1 mM dithiothreitol and 20 mM scdium phosphate, pH 6.5). Unless specified, all the following procedures were carried out at 0°-4° C. The prostates were drained, minced, and then homogenized in 3-4 tissue volumes of medium A with Pyrex-glass homogenizer. The homogenate was fractioned by differential centrifugations at 3,000 g for 15 minutes. The resulting pellets were resuspended in medium A. The suspension (20-30 mg protein/ml) was stored at -80° C.
The reaction solution contains 1 mM dithiothreitol, 40 mM sodium phosphate pH 6.5, 50 μM NADPH, 1,2,6,7-^3 H-testosterone/testosterone (2.2×10^-9 M) and the suspension prepared above (0.8 mg of protein) in a total volume of 565 μl. Test Compound was added in 10 μl of 10% ethanol whereas control tubes received the same volume of 10% ethanol. The reaction was started with the addition of the enzyme suspension. After incubation at 37° C. for 30 minutes, the reaction was extracted with 1 ml of ethyl acetate. Fifty μl of ethyl acetate phase was chromatographed on a Merck silica plastic sheet Kieselgel 60 F254, using ethyl acetate: cyclohexane (1:1) as the developing solvent system. The plastic sheet was air dried and cut the testosterone and the 5α-dihydrotestosterone areas. The radioactivity was counted in 5 ml of Aquazol-2 in Packard scintillation counter (PACKARD TRI - CARB 4530), and an inhibitory ratio was calculated.

Structure (SMILES) | IC50
CC(C)Cc1ccc(C(Nc2cccc(C(=O)c3cn(CCCC(=O)O)c4ccccc34)c2)c2ccc(CC(C)C)cc2)cc1 [(1), 4-[3-[3-[Bis(4-isobutylphen-yl)methylamino]benzoyl]indol-1-yl]butyric acid] | 5.5 nM
Cc1c(C(=O)c2cccc(NC(c3ccc(CC(C)C)cc3)c3ccc(CC(C)C)cc3)c2)c2ccccc2n1CCCC(=O)O [(2), 4-[3-[3-[Bis(4-isobutylphenyl)methylamino]benzoyl]-2-methylindol-1-yl]butyric acid] | 8.6 nM
CC(C)Cc1ccc(C(Oc2ccc(C(=O)c3cn(CCCC(=O)O)c4ccccc34)cc2)c2ccc(CC(C)C)cc2)cc1 [(3), 4-[3-[4-[Bis(4-isobutylphenyl)methoxy]benzoyl]indol-1-yl]butyric acid] | 3.5 nM
CC(C)Cc1ccc(C(C)Oc2ccc(C(=O)c3cn(CCCC(=O)O)c4ccccc34)cc2)cc1 (centres unmarked) [(4), 4-[3-[4-[1-(4-Isobutylphenyl)ethoxy]benzoyl]indol-1-yl]butyric acid] | 3.1 nM
CC(C)Cc1ccc(C(Cc2cccc(C(=O)c3cn(CCCC(=O)O)c4ccccc34)c2)c2ccc(CC(C)C)cc2)cc1 [(5), 4-[3-[3-[2,2-Bis(4-isobutylphenyl)ethyl]benzoyl]indol-1-yl]butyric acid] | 7.4 nM
O=C(O)CCCn1cc(C(=O)c2cccc(CN3c4ccccc4CCc4ccccc43)c2)c2ccccc21 [(6), 4-[3-[3-(10,11-Dihydro-5H-dibenz[b,f]azepin-5-ylmethyl)benzoyl]indol-1-yl]butyric acid] | 0.93 nM
CC(C)Cc1ccc(CNc2cc(NCc3ccc(CC(C)C)cc3)cc(C(=O)c3cn(CCCC(=O)O)c4ccccc34)c2)cc1 [(7), 4-[3-[3,5-Bis[(4-isobutylbenzyl)amino]benzoyl]indol-1-yl]butyric acid dihydrochloride] | 3.7 nM
CCCCC(Oc1ccc(C(=O)c2cn(CCCC(=O)O)c3ccccc23)cc1)c1ccc(CC(C)C)cc1 (centres unmarked) [(8)] | 0.66 nM
